Measurements from PubChem BioAssay AID220 (DTP/NCI, 2004).
“And” between values parts separate entries of the source, which are not always exact repeats. Identical values can stand only once. Results filed as inconclusive are left out.

Test system: CD8F1 mice, subcutaneous mammary adenocarcinoma, T/C%
Experiment: NCI In Vivo Anticancer Drug Screen. Data for tumor model Mammary Adenocarcinoma CD8F1 (subcutaneous) in CD8F1
Conditions: higher = larger tumour
How it was run: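 Antitumor activity is assessed in transplantable-tumor mice by comparing the treated group with a vehicle-treated control group. Survival or tumor size serves as the measure, reported as T divided by C.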

[1] = endpoint: median tumor weight (est.), dose: 25.0 mg/kg/injection, schedule: Q07DX005 (ip), vehicle: saline
[2] = endpoint: median tumor weight (est.), dose: 50.0 mg/kg/injection, schedule: Q07DX005 (ip), vehicle: saline
[3] = endpoint: median tumor weight (est.), dose: 100.0 mg/kg/injection, schedule: Q07DX005 (ip), vehicle: saline
[4] = endpoint: median tumor weight (est.), dose: 200.0 mg/kg/injection, schedule: Q07DX005 (ip), vehicle: saline

For `NC(C/[N+]([O-])=N/O)C(=O)O` (configuration not stated), which T/C (endpoint: mean tumor weight, dose: 32.0 mg/kg/injection, schedule: Q07DX006 (ip), vehicle: saline) is on record?
Its T/C is 47 % of control.

What about the T/C (endpoint: mean tumor weight, dose: 64.0 mg/kg/injection, schedule: Q07DX006 (ip), vehicle: saline) of the same compound?
Its T/C is 4 % of control.

And the T/C (endpoint: mean tumor weight, dose: 128.0 mg/kg/injection, schedule: Q07DX006 (ip), vehicle: saline)?
Its T/C is 32 % of control.

What about the T/C (endpoint: mean tumor weight, dose: 256.0 mg/kg/injection, schedule: Q07DX006 (ip), vehicle: saline) of the same compound?
Its T/C is 117 % of control.

And the T/C (endpoint: mean tumor weight, dose: 512.0 mg/kg/injection, schedule: Q07DX006 (ip), vehicle: saline)?
Its T/C is 7 % of control.

And the T/C (endpoint: mean tumor weight, dose: 1024.0 mg/kg/injection, schedule: Q07DX006 (ip), vehicle: saline)?
Its T/C is 8 % of control.

What about the T/C [1] of the same compound?
Its T/C is 63 % of control.

What about the T/C [2] of the same compound?
Its T/C is 68 % of control.

And the T/C (endpoint: median tumor weight (est.), dose: 64.0 mg/kg/injection, schedule: Q01DX005 (ip), vehicle: saline)?
Its T/C is 85 % of control.

And the T/C [3]?
The T/C was 57 % of control.

What about the T/C (endpoint: median tumor weight (est.), dose: 128.0 mg/kg/injection, schedule: Q01DX005 (ip), vehicle: saline) of the same compound?
The T/C was 92 % of control.

What about the T/C [4] of the same compound?
The T/C was 56 % of control.

And the T/C (endpoint: median tumor weight (est.), dose: 256.0 mg/kg/injection, schedule: Q01DX005 (ip), vehicle: saline)?
The T/C was 51 % of control.

And the T/C (endpoint: median tumor weight (est.), dose: 400.0 mg/kg/injection, schedule: Q07DX005 (ip), vehicle: saline)?
The T/C was 49 % of control.

And the T/C (endpoint: median tumor weight (est.), dose: 512.0 mg/kg/injection, schedule: Q01DX005 (ip), vehicle: saline)?
The T/C was 31 % of control.

What about the T/C (endpoint: median tumor weight (est.), dose: 1024.0 mg/kg/injection, schedule: Q01DX005 (ip), vehicle: saline) of the same compound?
The T/C was 63 % of control.

How did the T/C (endpoint: median tumor weight change, dose: 125.0 mg/kg/injection, schedule: Q01DX001 (ip), vehicle: water) turn out when `NC(=O)c1csc(C2OC(CO)C(O)C2O)n1` (configuration not stated) was run?
The T/C was 87 % of control and 96 % of control.

What about the T/C (endpoint: median tumor weight change, dose: 500.0 mg/kg/injection, schedule: Q01DX001 (ip), vehicle: water) of the same compound?
The T/C was 11 % of control and 35 % of control.

And the T/C (endpoint: median tumor weight change, dose: 2000.0 mg/kg/injection, schedule: Q01DX001 (ip), vehicle: water)?
The T/C was 55 % of control.

How did the T/C (endpoint: median tumor weight (est.), dose: 0.06 mg/kg/injection, schedule: Q07DX005 (ip), vehicle: saline) turn out when `CCCCCCCCCCCCCCCC(=O)O[C@@]12C[C@@H](C)[C@@]3(O)[C@@H](C=C(CO)C[C@]4(O)C(=O)C(C)=C[C@@H]34)[C@@H]1C2(C)C` was run?
The T/C was 84 % of control.

What about the T/C (endpoint: median tumor weight (est.), dose: 0.12 mg/kg/injection, schedule: Q07DX005 (ip), vehicle: saline) of the same compound?
The T/C was 68 % of control.

What about the T/C (endpoint: median tumor weight (est.), dose: 0.25 mg/kg/injection, schedule: Q07DX005 (ip), vehicle: saline) of the same compound?
Its T/C is 62 % of control.

What about the T/C (endpoint: median tumor weight (est.), dose: 0.5 mg/kg/injection, schedule: Q07DX005 (ip), vehicle: saline) of the same compound?
The T/C was 97 % of control.

What about the T/C (endpoint: median tumor weight (est.), dose: 1.0 mg/kg/injection, schedule: Q07DX005 (ip), vehicle: saline) of the same compound?
Its T/C is 68 % of control.

What does the source list for `C/C(=N\NC(N)=O)c1cccc(/C(C)=N/NC(N)=O)n1`?
T/C (endpoint: median tumor weight change, dose: 62.5 mg/kg/injection, schedule: Q01DX001 (ip), vehicle: saline with Tween-80): 64 % of control; T/C (endpoint: median tumor weight change, dose: 125.0 mg/kg/injection, schedule: Q01DX001 (ip), vehicle: saline with Tween-80): 53 % of control; T/C (endpoint: median tumor weight change, dose: 250.0 mg/kg/injection, schedule: Q01DX001 (ip), vehicle: saline with Tween-80): 48 % of control

`Brc1ccc(C[N+]23CN4CN(CN(C4)C2)C3)cc1` was tested. Which T/C (endpoint: median tumor weight (est.), dose: 25.0 mg/kg/injection, schedule: Q07DX005 (ip), vehicle: saline with Tween-80) did it give?
Its T/C is 90 % of control.

What about the T/C (endpoint: median tumor weight (est.), dose: 50.0 mg/kg/injection, schedule: Q07DX005 (ip), vehicle: saline with Tween-80) of the same compound?
The T/C was 96 % of control.

What about the T/C (endpoint: median tumor weight (est.), dose: 100.0 mg/kg/injection, schedule: Q07DX005 (ip), vehicle: saline with Tween-80) of the same compound?
Its T/C is 180 % of control.

`N=C1CCCS1` was tested. Which T/C (endpoint: median tumor weight change, dose: 125.0 mg/kg/injection, schedule: Q01DX001 (ip), vehicle: saline) did it give?
Its T/C is 93 % of control.

What about the T/C (endpoint: median tumor weight change, dose: 250.0 mg/kg/injection, schedule: Q01DX001 (ip), vehicle: saline) of the same compound?
The T/C was 89 % of control.

Which results are given for `C(CSC1=NCCN1)CSC1=NCCN1`?
T/C (endpoint: median tumor weight (est.), dose: 12.5 mg/kg/injection, schedule: Q07DX005 (ip), vehicle: saline): 98 % of control; T/C [1]: 103 % of control; T/C [2]: 76 % of control; T/C [3]: 102 % of control; T/C [4]: 69 % of control
